From patent publication EP0539180A1, “Antiviral agents” (SANWA KAGAKU KENKYUSHO CO., LTD., priority 1991, dated 1993) come the findings set out here.

Molecules are shown by their SMILES. Like-named read-outs stand apart in the source and are kept apart here. Marks after values point to notes of the source that are not given here.

In data set [1] the test system is HSV-1 (Miyama strain). The experiment in a line: In vitro antiviral activity against HSV-1 (CPE inhibition, virus titer reduction) in GMK cells. The format is cell-based. Conditions: read-out: Antiviral Activity (ΔTCID50 (log10)). On the procedure: The virus titer (TCID₅₀) was determined from CPE of virus infected culture. Antiviral effects of the test compounds were calculated from TCID₅₀ values of the test compounds treated and control cultures and represented by ΔTCID₅₀ (log₁₀).
In this regard, it is noted that prior to be added to the incubation systems, the compounds were dissolved in MEM or ethanol media at 10 mg/ml concentrations, and diluted with MEM media supplemented with 1% fetal bovine serum.

Data set [2] has as its system HSV-1 (Miyama strain). The experiment in a line: In vivo anti-HSV-1 activities in intraperitoneally infected mice (Testing 4). The arrangement: species or system BALB/c mice. As to conditions: mice infected with 322 PFU HSV-1; for Survival Ratios after 21 days (%): control 0; for Mean Survival Days: control 6.9.
Data set [3] has as its system GMK cells. Briefly: Cytotoxicity, microscopically observed in GMK cell cultures. The format is cell-based, green monkey.
Data set [4] concerns HSV-1 (Miyama strain). Briefly: In vivo anti-HSV-1 activities in intraperitoneally infected mice (Testing 5). The arrangement: species or system BALB/c mice. Conditions: mice infected with 322 PFU HSV-1; for Survival Ratios after 21 days (%): control 0; for Mean Survival Days: control 6.9, *: P<0.05 (U Test).
The mark [5] stands for this setting: Human alphaherpesvirus 1, 10 μg/ml, HSV-1 (Miyama strain), GMK cells.
Setting [6] is: Human alphaherpesvirus 1, 50 μg/ml, HSV-1 (Miyama strain), GMK cells.
[7] abbreviates: 5 mg/kg intraperitoneally for five days.
The mark [8] stands for this setting: 20 mg/kg intraperitoneally for five days.
The mark [9] stands for this setting: 10 mg/kg intraperitoneally for five days.
The mark [10] stands for this setting: 40 mg/kg intraperitoneally for five days.

Consider `COc1ccccc1N1CCN(CCN)CC1` [Compound 9, 4-(aminoethyl)-1-(o-methoxyphenyl)piperazine], for which, in data set [1] (setting [5]), the log reduction at 10 µg/mL was 0.87. The log reduction at 50 µg/mL in data set [1] (setting [6]) amounted to 1.8. Further, the log reduction at 100 µg/mL in data set [1] (Human alphaherpesvirus 1, 100 μg/ml, HSV-1 (Miyama strain), GMK cells) was 2.53. Besides, in data set [2] (setting [7]), the “Survival Ratios after 21 days (%)” value came out at 70% and the “Mean Survival Days” value is on record as 17.5* Days. For the same compound, in data set [2] (setting [8]), the “Survival Ratios after 21 days (%)” value is recorded as 50% and the “Mean Survival Days” value is 10.9* Days.
As to `CC[C@]12CCCN3CCc4c(n(c5ccccc45)C(=NOCC(O)CN4CCN(c5ccccc5OC)CC4)C1)[C@@H]32` (stereo partly drawn) [Compound 10], in data set [1] (setting [5]), the log reduction at 10 µg/mL is over 3. Besides, the log reduction at 50 µg/mL in data set [1] (setting [6]) was over 2.17. Also, the cytotoxicities result in data set [3] (50 μg/ml) was “(±)”. In addition, the “Survival Ratios after 21 days (%)” value is 50% in data set [4] (setting [7]), 60% in data set [4] (setting [9]), 50% in data set [4] (setting [8]) and 50% in data set [4] (setting [10]). Further, the “Mean Survival Days” value in data set [4] (setting [7]) was 15.4* Days; in data set [4] (setting [9]), 15.4* Days; in data set [4] (setting [8]), 16.4* Days; in data set [4] (setting [10]), 15.5* Days.
For `c1ccc(N2CCCCC2)cc1` [Compound 8, 1-phenylpiperidine], in data set [1] (Human alphaherpesvirus 1, GMK), the log reduction at 100 µg/mL is 0.5. Also, the cytotoxicities result in data set [3] (100 μg/ml) is recorded as “(+)”.
In the case of `COc1ccccc1N1CCNCC1` [Compound 4, 1-(o-methoxyphenyl)piperazine hydrochlorate], in data set [1] (Human alphaherpesvirus 1, GMK), the log reduction at 10 µg/mL was 0.56, the log reduction at 50 µg/mL came out at 1.56 and the log reduction at 100 µg/mL turned out to be 2.5. Also, the cytotoxicities entry in data set [3] (100 μg/ml) is recorded as “(+)”.
Turning to `Clc1ccc(N2CCNCC2)cc1` [Compound 3, 1-(p-chlorophenyl)piperazine hydrochlorate], in data set [1] (Human alphaherpesvirus 1, GMK), the log reduction at 10 µg/mL is 0 and the log reduction at 50 µg/mL was 1.5. Also, the cytotoxicities result in data set [3] (100 μg/ml) is reported as “(±±)”.
Regarding `Fc1ccccc1N1CCNCC1` [Compound 5, 1-(o-fluorophenyl)piperazine hydrochlorate], in data set [1] (Human alphaherpesvirus 1, GMK), the log reduction at 10 µg/mL is 0.33, the log reduction at 50 µg/mL is 1.33 and the log reduction at 100 µg/mL was found to be 1.56. For the same compound, the cytotoxicities result in data set [3] (100 μg/ml) was “(+)”.
For the compound `Clc1cccc(N2CCNCC2)c1` [Compound 2, 1-(m-chlorophenyl)piperazine hydrochlorate], in data set [1] (Human alphaherpesvirus 1, GMK), the log reduction at 10 µg/mL came to 0.46 and the log reduction at 50 µg/mL was found to be 1.23. In addition, in data set [3] (100 μg/ml), the cytotoxicities result is on record as “(±±)”.
On to `c1ccc(N2CCNCC2)cc1` [Compound 7, 1-phenylpiperazine], for which the log reduction at 100 µg/mL in data set [1] (Human alphaherpesvirus 1, GMK) stood at 0.83. Further, the cytotoxicities entry in data set [3] (100 μg/ml) is “(+)”.
Take `Clc1cccc(Cl)c1N1CCNCC1` [Compound 12]: in data set [1] (Human alphaherpesvirus 1, GMK), the log reduction at 10 µg/mL turned out to be 1, the log reduction at 50 µg/mL was determined as 2.67 and the log reduction at 100 µg/mL is over 3.3. Besides, the cytotoxicities entry in data set [3] (100 μg/ml) is “(±)”.
In the case of `FC(F)(F)c1ccccc1N1CCNCC1` [Compound 11], in data set [1] (Human alphaherpesvirus 1, GMK), the log reduction at 10 µg/mL came to 2, the log reduction at 50 µg/mL is over 4 and the log reduction at 100 µg/mL is under 4. In addition, the cytotoxicities entry in data set [3] (100 μg/ml) is “(±)”.
The like results for `Fc1ccc(N2CCNCC2)cc1` [Compound 6, 1-(p-fluorophenyl)piperazine hydrochlorate] were, in that order, 0, 0.5, 1.33 and “(+)”.
